Drawing on ChEMBL document CHEMBL1201862, “PubChem BioAssay data set” (2004), this text covers IC50, EC50 and AC50 for eight molecules.

Molecules are shown by their SMILES. Calls of active or inactive are those of the source. Some results are limits rather than exact numbers.

One test concerns H9c2. Kind of test: cells. It counts as functional, cell-based. Particulars: Rattus norvegicus, H9c2, Myocardium.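 Also: confirmatory concentration-response retest of ultra-high-throughput screening hits for modulation of myocardial damage; cell death induced by hydrogen peroxide oxidative stress; compound pretreatment for 60 min then peroxide exposure for 2 h; potency is for protecting the cells against peroxide damage rather than for killing them.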
Test [1] concerns the target Botulinum neurotoxin type F (Clostridium botulinum, UniProt P30996). Kind of test: High-throughput multiplex microsphere dose response for inhibitors of toxin protease, specifically Botulinum neurotoxin light chain F protease, compounds from Cherry Pick 02. In kind it is functional. Particulars: read-out: EC50_MICROM.
The subject of a further test is Vero. Kind of test: viability loss in Vero cells – cell-based, plate reader, cherry-pick samples, cytotoxicity control, dose response (AID 687020). In kind it is functional. Particulars: Chlorocebus sabaeus.
The nature of test [2]: cytotoxicity toward Colo320 cells – cell-based, CellTiter-Glo luminescence, IC50, dose response (AID 1117334). It counts as functional. Particulars: COLO 320. Background: In ATP-based viability assays light output follows the ATP content of the culture.
Test [3] in a line: Reduced DLD-1 viability, concentration-response, CellTiter-Glo luminescence (AID 1117352). It counts as functional.
A short description of test [4]: non-specific 3'UTR reporter inhibition in Clone20-Shn3RL – cell-based, Renilla luciferase, cherry-picked, counter-screen for Shn3 inhibitor project, dose response (AID 624133). In kind it is functional.
Test [5] can be described thus: rise of 2N DNA cells, HeLa – IC50, dose response (AID 1117349). It counts as functional, cell-based.
The nature of test [6]: cytotoxicity toward HCT116 cells – cell-based, CellTiter-Glo luminescence, IC50, dose response (AID 1117332). It counts as functional. Particulars: HCT-116.
A further test concerns the target Galanin receptor type 3 (Homo sapiens, UniProt O60755). Kind of test: Fluorescence-based cell-based primary high throughput dose response assay to identify antagonists of the Galanin Receptor 3 (GalR3). It counts as functional.
A short description of test [7]: cells. In kind it is functional, cell-based. Particulars: HEK-CNG.
Test [8] in a line: loss of viability in HepG2 cells – cell-based, CellTiter-Glo, cherry-picked, cytotoxicity control for Shn3 inhibitor project, dose response (AID 624134). In kind it is functional.
In test [9] the target is COUP transcription factor 2 (Homo sapiens, UniProt P24468). Kind of test: Luminescence-based cell-based high throughput dose response assay to identify inhibitors of COUP-TFII (NR2F2). In kind it is functional.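 Also: HEK293 cells transiently cotransfected with COUP-TFII expression vector and reporter; luciferase reporter luminescence driven by COUP-TFII from the pX2-168 reporter plasmid.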
A short description of test [10]: CellTiter-Glo luminescence survival assay, SW480 colon tumor line, concentration-response curve, half-maximal inhibitory concentration (AID 1117338). It counts as functional.
The nature of test [11]: reduction of Shn3 3'UTR-driven luciferase in osteoblasts – cell-based, Clone20 osteoblasts, firefly luciferase, cherry-picked, dose response (AID 624132).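 Also: firefly luciferase luminescence from reporter carrying the Shn3 3'UTR in osteoblasts.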 It counts as functional.
The nature of test [12]: SNU-C1 cell viability reduction, dose response, CellTiter-Glo luminescence (AID 1117323). It counts as functional, cell-based.
Test [13] is described as follows: rise of 4N DNA cells, HeLa – IC50, dose response (AID 1117351). It counts as functional, cell-based.
Test [14] is described as follows: cytotoxicity toward HT-29 cells – cell-based, CellTiter-Glo luminescence, IC50, dose response (AID 1117330). It counts as functional.
The target of a further test is Major prion protein (Homo sapiens, UniProt P04156). It counts as functional, cell-based.
Test [15] in a line: cells.
Test [16] has as its target 1-phosphatidylinositol 4,5-bisphosphate phosphodiesterase gamma-1 (Homo sapiens, UniProt P19174). Kind of test: Counterscreen for inhibitors of phospholipase C isozymes (PLC-B3): Fluorescence-based biochemical high throughput dose response assay to identify inhibitors of phospholipase C isozymes (PLC-gamma1).
Test [17] concerns the target 1-phosphatidylinositol 4,5-bisphosphate phosphodiesterase beta-3 (Homo sapiens, UniProt Q01970). Kind of test: Fluorescence-based biochemical high throughput dose response assay to identify inhibitors of phospholipase C isozymes (PLC-B3).
Another test deals with Paired box protein Pax-8 (Homo sapiens, UniProt Q06710). Kind of test: PAX8 transcriptional activity inhibition in RMG-I – RMG-I cells, luciferase, cherry-pick, dose response (AID 687027).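 Also: luciferase reporter driven by Pax8 target thyroperoxidase promoter measured by SteadyGlo luminescence.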 In kind it is functional, cell-based.
Test [18] can be described thus: IGROV1 cell killing – plate reader, dry powder samples, PAX8 inhibitor project, dose response (AID 743043). It counts as functional, cell-based. Particulars: IGROV-1.
Another test has as its target Mu-type opioid receptor (Homo sapiens, UniProt P35372). In kind it is functional, cell-based.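 Also: U2OS cells with beta-arrestin recruitment to OPRM1 by beta-gal complementation.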
Test [19] deals with 5-hydroxytryptamine receptor 2A (Mus musculus, UniProt P35363). It counts as functional, cell-based.
Test [20] deals with Fructose-bisphosphate aldolase (Mycobacterium tuberculosis, UniProt P9WQA3). Kind of test: Fluorescence-based biochemical high throughput dose response assay for inhibitors of the fructose-bisphosphate aldolase (FBA) of M. tuberculosis. It counts as functional.

A word on the IC50: it is the concentration needed to halve the response being measured. On to `COc1ccc(-c2oc3c(OC)c(OC)c(OC)c(O)c3c(=O)c2OC)cc1OC`, for which the IC50 in the test with H9c2 was > 79 µM (inactive). Besides, the EC50 in [1] is > 20 µM (inactive).
For orientation: AC50 means the midpoint of the concentration-response curve, whichever way the signal moves. As for `CC1CCOC(c2coc3ccccc3c2=O)O1` (stereo unspecified), the concentration at half-maximal activity (AC50) with Vero is 24.2 µM (active).
On to `Cc1nc2ccccc2n1Cc1ccc(Cl)cc1` [CHLORMIDAZOLE], for which the IC50 in [2] is 15.2 µM (inactive); in test [3], > 20 µM (inactive); in test [5], > 10 µM (inactive); in [6], 1.22 µM (active); on Galanin receptor type 3 it was 0.203 µM (active); in [9] it was 10.6 µM (inactive). The IC50 is 5.33 µM (inactive) in test [10], > 20 µM (inactive) in test [12], > 10 µM (inactive) in test [13] and > 20 µM (inactive) in test [14]. Further, the values for the concentration at half-maximal activity (AC50) in [4], in test [8] and in [11] were 28.2 µM (active), 2.79 µM (active) and 1.46 µM (active), respectively. Besides, the EC50 in the test “cells [7]” was > 29.9 µM (inactive).
For the molecule `CC(=O)Nc1ccc2nc(C)c(CC=C(Cl)Cl)c(O)c2c1`, the IC50 was 10.2 µM (inactive) on Major prion protein and > 138 µM (inactive) in “cells [15]”.
As to `O=C(CCNc1cc(Cl)cc(Cl)c1)c1cccs1`, the IC50 in [16] and in test [17] was > 123 µM (inactive) each time.
With `C[C@H]1CCCCO[C@H](CN(C)C(=O)C2CCCCC2)[C@@H](C)CN([C@@H](C)CO)C(=O)c2cc(NC(=O)Nc3ccc(F)cc3)ccc2O1`, the AC50 at Paired box protein Pax-8 is 8.1 µM (active); in [18] it was 57.6 µM (active).
With `O=C(c1ccco1)N1CCN(CC2CC3C=CC2C3)CC1` (stereo unspecified), the EC50 on Mu-type opioid receptor is 92.4 µM (inactive); in test [19], 2.96 µM (active).
With `CCN(CC)CCCNC(=O)CCC(=O)Nc1ccc2nc(N3CCC(C)CC3)cc(C)c2c1`, in [20], the IC50 was > 0.37 µM (active).
